Experiments:
[1] = system: tone genes; assay: Human Ex-vivo Pre-Clinical Model, fold regulation changes by clinical formulations; assay type: cell-based; conditions: FIGS. 25a and 25b
Protocol: FIGS. 25a and 25b show two respective tables showing ex-vivo model fold regulation changes indicating significant down-regulation by clinical formulations in the Human Ex-vivo Pre-Clinical Model.
(§1) The ex-vivo screening method has provided identification of agents consistent with in-vitro studies and which have proven positive clinically. One such example is hexyldecanol. […] For example, total melanin assays were performed using a rat melanoma line known to produce melanin. […] Therefore, promising tone agents such as hexyldecanol identified from the in-vitro model and the ex-vivo model have been tested in clinical settings.

[2] = system: rat melanoma line known to produce melanin; assay: total melanin assay in melanoma cell culture; assay type: cell-based; conditions: rat melanoma cell cultures; compared to controls
Protocol: as §1

[3] = system: facial skin tone (spots, melanin evenness); assay: 9-week clinical study, randomized, double-blind, vehicle-controlled, split-face; assay type: in vivo, human
Source text: For example, hexyldecanol was compared to vehicle controls and positive controls (5% Niacinamide+1% undecylenoyl phenylalanine) through a 9-week period. Specifically the trial included a 9-week clinical study with a randomized, double-blind, round robin, vehicle-controlled, split-face design, including one week normalization period whereby 330 subjects received test product.

[4] = system: tone genes of interest; assay: ex-vivo tissue culture exposed to compounds known to stimulate the pigmentation pathway, tone gene regulation; assay type: cell-based, human; conditions: p≤0.1, minimum of 2-10 experiments each
[5] = system: 9 epidermal tone genes; assay: endogenously driven ex-vivo human skin tissue, regulation of tone genes (mRNA/PCR) vs untreated control; assay type: cell-based; conditions: number of epidermal genes regulated, endogenously driven tissue sample, 37° C. and 70% humidity, 2-10 experiments each
Protocol: Referring to FIGS. 11 to 15, examples are shown for the regulation of the 9 epidermal tone genes against an untreated control in an endogenously driven ex-vivo tissue system at 37° C. and 70% humidity for niacinamide, hexamidine, N-Acetyl glucosamine, kojic acid, tranexamic acid, and undecylenoyl phenylalanine (2-10 experiments each). […] For instance, out of the 9 epidermal genes, at least one compound (Hexamidine) regulated 9 genes (with a statistical significance of p<0.1 or better) while two compounds regulated 5 or fewer genes (with a p<0.1 or better). Table 1 below summarizes the number of epidermal genes regulated by certain materials in an endogenously driven tissue sample with a statistical significance of p≤0.1.
Culturing involved setting up culture plates: putting 2.5 ml of media or treatment into each well of a 6-well tissue plate, adding one Millicell culture insert to each well, and putting 100 μl of 1×DMEM on the center of each insert membrane. Squares were selected randomly placed into each of the inserts (one piece of skin per insert), on top of the media on the membrane. The plates were stored at either 33° C. (though an additional non-limiting example would be 37° C. depending on the experiment endpoint). […]
Culture and treatment of the model comprised replicates of n=5 (though replicates of additional quantities may be used such as n=6). […]

[6] = system: 9 epidermal tone genes; assay: Stem Cell Factor/Endothelin 1 driven ex-vivo human skin tissue, regulation of tone genes vs untreated control; assay type: cell-based; conditions: number of the 9 epidermal genes regulated, Stem Cell Factor/Endothelin 1 driven tissue sample, 37° C. and 70% humidity
Protocol: Referring to FIGS. 19 to 23, examples (of 2-10 experiments each) are shown for the regulation of the 9 epidermal tone genes against an untreated control in ex-vivo tissue driven by the combination of Stem Cell Factor and Endothelin at 37° C. and 70% humidity for niacinamide, hexamidine, N-Acetyl glucosamine, kojic acid, tranexamic acid, and undecylenoyl phenylalanine. […] For instance, out of the 9 epidermal genes, at least one compound (undecylenoyl phenylalanine) regulated 5 genes (with a statistical significance of p<0.1 or better) while two compounds regulated 2 or fewer genes (with a p<0.1 or better). Table 2 below summarizes the number of epidermal genes regulated by certain materials in a Stem Cell Factor/Endothelin 1 driven tissue sample with a statistical significance of p≤0.1.
In example embodiments, tone is driven by application of stem cell factor and/or endothelin (with skin preparation, culturing, and mRNA processing being completed as previously described). In an example embodiment, skin samples are placed within 6-well plates, with 2.5 ml of media per well. A concentration of eighty nanograms per milliliter of stem cell factor as well as eighty nanograms per milliliter of endothelin was applied to tissue in the wells, with the media being refreshed daily. The culture was maintained for seven days. […]

Compound: CCCCCCCCC(CO)CCCCCC (stereo not drawn) [Hexyldecanol, hexyldecanol]
- gene regulation in ex-vivo model [1]: down-regulation
- total melanin produced [2]: decreased total melanin
- overall comparison to vehicle ([3]; significant if p<0.10 (1-sided) vs. vehicle): statistically better than vehicle controls
- melanin evenness ([3]; versus vehicle control): significantly different from controls
- spot area fraction (total area of spots per face) ([3]; versus vehicle control): decreased versus the control group

Compound: α-MSH [reference compound]
- regulation of tone genes of interest [4]: up regulate one or more tone genes of interest

Compound: tranexamic acid
- # Genes (out of 9) with p ≤ 0.1 [5]: 7
- # of Genes with p ≤ 0.1 [6]: 3

Compound: Stem Cell Factor: compound known to stimulate the pigmentation pathway; paracrine agent
- regulation of tone genes of interest [4]: up regulate one or more tone genes of interest

Source: patent US10732171B2, “Human skin sample methods and models for validating hypotheses for mechanisms driving skin pigmentation” (The Procter & Gamble Company, priority 2011, dated 2020)
